Results on 52 sequences are retold here after the supplement of paper PMC11208160.

A short description of the data set: recombinant UMI read abundance after kanamycin selection (control-corrected) (log10(CPM+1)); higher = more efficient recombination; extreme values may be limits of the assay; sequences stand for … in AGTGCAGAGAAAATCGGCCAGTTTTCTCTGCCTGCAGTCCGCATGCCGTGGGACCCCTTGGGTTCTAACCTGTTGCCTAGATTTATGCAGCGGACTGCCTTTCTCCCAAAGTGATAAACCGG…AGGTTGGTTTCACT; site = the 11-nt donor. The essentials:
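Pooled Escherichia coli screen of donor and donor-binding-loop pairs for the IS621 bridge recombinase. Each pair sits with a 12-nt UMI on a plasmid carrying a promoterless kanamycin gene. The library was co-electroporated with a target plasmid encoding a fixed target and T7-inducible recombinase, then plated with IPTG (0.07 mM) plus kanamycin, or unselected, each in two replicates. Recombinant UMIs were PCR-amplified across the donor–target junction and sequenced. Counts became CPM, averaged over replicates, scaled by control-derived factors and reported as log10(CPM+1).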
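Further: IS621 bridge recombinase in Escherichia coli cells against a fixed T5 target plasmid.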

“CCAGCAGCATGGACCGGTTTTCCCGGTAATCCGTATTTGCT (site CCAGCAGCTAG)”: the “recombinant UMI read abundance (log10)” value was 0.104.

Take “CCAGCAGCATGGACCGGTTTTCCCGGTAATCCGTATTTGCT (site CGAGCAGCTAG)”: the “recombinant UMI read abundance (log10)” value was 0.

As to “CCAGCAGCATGGACCGGTTTTCCCGGTAATCCGTATTTGCT (site CTAGCAGCTAG)”, the “recombinant UMI read abundance (log10)” value worked out at 0.0142.

For “CCAGCATCATGGACCGGTTTTCCCGGTAATCCGTATTTGAC (site CCAGCATCTGT)”, the “recombinant UMI read abundance (log10)” value was 0.

As to “CCAGCATCATGGACCGGTTTTCCCGGTAATCCGTATTTGAC (site CTAGTATCTGT)”, the “recombinant UMI read abundance (log10)” value turned out to be 0.

Consider “CCAGGAGCATGGACCGGTTTTCCCGGTAATCCGTATTTGAT (site CCAGGAGCTAT)”, for which the “recombinant UMI read abundance (log10)” value came to 1.6.

As for “CCAGGAGCATGGACCGGTTTTCCCGGTAATCCGTATTTGAT (site CCAGGCGCTAT)”, the “recombinant UMI read abundance (log10)” value came out at 0.854.

Take “CCAGGAGCATGGACCGGTTTTCCCGGTAATCCGTATTTGAT (site CCAGGGGCTAT)”: the “recombinant UMI read abundance (log10)” value turned out to be 0.941.

As to “CCAGGAGCATGGACCGGTTTTCCCGGTAATCCGTATTTGAT (site CCAGGTGCTAT)”, the “recombinant UMI read abundance (log10)” value was 1.78.

As to “CCAGGTACATGGACCGGTTTTCCCGGTAATCCGTATTTGAT (site CCAGGTACTAT)”, the “recombinant UMI read abundance (log10)” value was 0.643.

Consider “CCAGGTACATGGACCGGTTTTCCCGGTAATCCGTATTTGAT (site CCAGGTCCTAT)”, for which the “recombinant UMI read abundance (log10)” value was determined as 0.

Consider “CCAGGTACATGGACCGGTTTTCCCGGTAATCCGTATTTGAT (site CCAGGTGCTAT)”, for which the “recombinant UMI read abundance (log10)” value is 1.2.

Consider “CCAGGTACATGGACCGGTTTTCCCGGTAATCCGTATTTGAT (site CCAGGTTCTAT)”, for which the “recombinant UMI read abundance (log10)” value came out at 0.478.

For “CCAGGTGCATGGACCGGTTTTCCCGGTAATCCGTATTTGCT (site CCAGGTGCTAA)”, the “recombinant UMI read abundance (log10)” value worked out at 0.208.

Consider “CCAGGTGCATGGACCGGTTTTCCCGGTAATCCGTATTTGCT (site CCAGGTGCTAC)”, for which the “recombinant UMI read abundance (log10)” value is 0.00458.

Consider “CCAGGTGCATGGACCGGTTTTCCCGGTAATCCGTATTTGCT (site CCAGGTGCTAG)”, for which the “recombinant UMI read abundance (log10)” value amounted to 1.46.

With “CCAGGTGCATGGACCGGTTTTCCCGGTAATCCGTATTTGCT (site CCAGGTGCTAT)”, the “recombinant UMI read abundance (log10)” value amounted to 0.402.

For the sequence “CCAGGTGCATGGACCGGTTTTCCCGGTAATCCGTATTTGTT (site CCAGGTGCTAA)”, the “recombinant UMI read abundance (log10)” value worked out at 0.856.

In the case of “CCAGGTGCATGGACCGGTTTTCCCGGTAATCCGTATTTGTT (site CCAGGTGCTAC)”, the “recombinant UMI read abundance (log10)” value is 0.00844.

Turning to “CCAGGTGCATGGACCGGTTTTCCCGGTAATCCGTATTTGTT (site CCAGGTGCTAG)”, the “recombinant UMI read abundance (log10)” value came out at 1.42.

On to “CCAGGTGCATGGACCGGTTTTCCCGGTAATCCGTATTTGTT (site CCAGGTGCTAT)”, for which the “recombinant UMI read abundance (log10)” value was found to be 1.14.

On to “CCAGTATCATGGACCGGTTTTCCCGGTAATCCGTATTTGAC (site CAAGTATCTGT)”, for which the “recombinant UMI read abundance (log10)” value was 0.983.

For “CCAGTATCATGGACCGGTTTTCCCGGTAATCCGTATTTGAC (site CCAGTATCTGT)”, the “recombinant UMI read abundance (log10)” value came to 0.685.

For the sequence “CCAGTATCATGGACCGGTTTTCCCGGTAATCCGTATTTGAC (site CGAGTATCTGT)”, the “recombinant UMI read abundance (log10)” value was found to be 0.

“CCAGTATCATGGACCGGTTTTCCCGGTAATCCGTATTTGAC (site CTAGTATCTGT)”: the “recombinant UMI read abundance (log10)” value stood at 0.871.

With “CCATACACATGGACCGGTTTTCCCGGTAATCCGTATTTGTT (site CCATACACTAA)”, the “recombinant UMI read abundance (log10)” value worked out at 0.866.

As for “CCATATTCATGGACCGGTTTTCCCGGTAATCCGTATTTGAC (site GGGATCGCTAC)”, the “recombinant UMI read abundance (log10)” value turned out to be 0.00628.

As for “CCATCAGCATGGACCGGTTTTCCCGGTAATCCGTATTTGCT (site CCATCAGCTAG)”, the “recombinant UMI read abundance (log10)” value came out at 0.375.

As to “CCATCAGCATGGACCGGTTTTCCCGGTAATCCGTATTTGCT (site CGATCATCTAG)”, the “recombinant UMI read abundance (log10)” value came to 0.145.

For “CCATCATCATGGACCGGTTTTCCCGGTAATCCGTATTTGCA (site CCATCATCTTG)”, the “recombinant UMI read abundance (log10)” value stood at 0.

“CCATCATCATGGACCGGTTTTCCCGGTAATCCGTATTTGCA (site CGATCATCTAG)”: the “recombinant UMI read abundance (log10)” value was 0.

“CCATCCCCATGGACCGGTTTTCCCGGTAATCCGTATTTGAT (site CCATCCCCTAT)”: the “recombinant UMI read abundance (log10)” value worked out at 0.0114.

In the case of “CCATTATCATGGACCGGTTTTCCCGGTAATCCGTATTTGAC (site CCATTATCTGT)”, the “recombinant UMI read abundance (log10)” value was determined as 0.804.

Consider “CCCAAATCATGGACCGGTTTTCCCGGTAATCCGTATTTGTC (site CCCAAATCTGA)”, for which the “recombinant UMI read abundance (log10)” value is 1.93.

Consider “CCCAAATCATGGACCGGTTTTCCCGGTAATCCGTATTTGTC (site CCCACATCTGA)”, for which the “recombinant UMI read abundance (log10)” value was found to be 0.

Regarding “CCCAAATCATGGACCGGTTTTCCCGGTAATCCGTATTTGTC (site CCCAGATCTGA)”, the “recombinant UMI read abundance (log10)” value turned out to be 0.

For “CCCAAATCATGGACCGGTTTTCCCGGTAATCCGTATTTGTC (site CCCATATCTGA)”, the “recombinant UMI read abundance (log10)” value was 0.

For the sequence “CCCAAGCCATGGACCGGTTTTCCCGGTAATCCGTATTTGCC (site CCCAAGCCTGG)”, the “recombinant UMI read abundance (log10)” value turned out to be 0.

Turning to “CCCAAGCCATGGACCGGTTTTCCCGGTAATCCGTATTTGCC (site CCCCAGCCTGG)”, the “recombinant UMI read abundance (log10)” value stood at 0.

Take “CCCAAGCCATGGACCGGTTTTCCCGGTAATCCGTATTTGCC (site CCCGAGCCTGG)”: the “recombinant UMI read abundance (log10)” value came to 0.

Consider “CCCAAGCCATGGACCGGTTTTCCCGGTAATCCGTATTTGCC (site CCCTAGCCTGG)”, for which the “recombinant UMI read abundance (log10)” value was 0.398.

As for “CCCAGCACATGGACCGGTTTTCCCGGTAATCCGTATTTGAA (site CCCAGCACTTT)”, the “recombinant UMI read abundance (log10)” value came to 0.515.

For the sequence “CCCAGCTCATGGACCGGTTTTCCCGGTAATCCGTATTTGCA (site CCCAGCTCTTG)”, the “recombinant UMI read abundance (log10)” value worked out at 2.3.

“CCCATACCATGGACCGGTTTTCCCGGTAATCCGTATTTGTG (site CCCATACCTCA)”: the “recombinant UMI read abundance (log10)” value was determined as 0.0125.

For “CCCATATCATGGACCGGTTTTCCCGGTAATCCGTATTTGGC (site CCCATATCTGA)”, the “recombinant UMI read abundance (log10)” value amounted to 0.

For “CCCATATCATGGACCGGTTTTCCCGGTAATCCGTATTTGGC (site CCCATATCTGC)”, the “recombinant UMI read abundance (log10)” value came to 0.

As for “CCCATATCATGGACCGGTTTTCCCGGTAATCCGTATTTGGC (site CCCATATCTGG)”, the “recombinant UMI read abundance (log10)” value came out at 0.

In the case of “CCCATATCATGGACCGGTTTTCCCGGTAATCCGTATTTGGC (site CCCATATCTGT)”, the “recombinant UMI read abundance (log10)” value was determined as 0.0107.

Consider “CCCATCTCATGGACCGGTTTTCCCGGTAATCCGTATTTGCT (site CCCATCTCTAG)”, for which the “recombinant UMI read abundance (log10)” value turned out to be 1.63.

Turning to “CCCATCTCATGGACCGGTTTTCCCGGTAATCCGTATTTGTC (site CCCATATCTGA)”, the “recombinant UMI read abundance (log10)” value was determined as 0.

Consider “CCCATCTCATGGACCGGTTTTCCCGGTAATCCGTATTTGTC (site CCCATCTCTGA)”, for which the “recombinant UMI read abundance (log10)” value turned out to be 1.35.

For the sequence “CCCATCTCATGGACCGGTTTTCCCGGTAATCCGTATTTGTC (site CCCATGTCTGA)”, the “recombinant UMI read abundance (log10)” value came to 0.
